Experimental findings from article PMC7277860, “Viridistratins A−C, Antimicrobial and Cytotoxic Benzo[j]fluoranthenes from Stromata of Annulohypoxylon viridistratum (Hypoxylaceae, Ascomycota)” (Biomolecules, 2020) are described below.

In brackets after ≈: the same amount, converted by molar mass.

What all share (experiment): MIC serial dilution assay
Common to all, as to assay type: cell-based

Assay [1] deals with Bacillus subtilis. The conditions noted are these: Bacillus subtilis DSM10; overnight, 30 °C; reference oxytetracycline 1 mg/mL; read-out: Minimum Inhibitory Concentration (MIC). On the procedure: (§1) Compounds 1, 2, 4 and 5 were dissolved in MeOH (1 mg/mL) for the antimicrobial activity assay, while compound 3 was dissolved in MeOH: DMSO 9+1 (1 mg/mL). The solvents were also used as negative controls.
(§2) Minimum inhibitory concentrations (MIC) were determined in a serial dilution assay, as described previously; a detailed protocol can be found in the Supporting Information. The compounds (1 mg/mL) were diluted to a range of 66.7 to 0.52 µg/mL and incubated with the test organisms overnight. Inhibition of growth was visually evaluated the next day: the MIC is defined as the lowest concentration of the test compound where no growth of the test organism was observed. Various test organisms of fungal and bacterial origin were tested to cover a broad range of microorganisms. This selection is also being used as a standard test panel in our attempts to discover new anti-infectives, as it represents a broad spectrum of pathogens of clinical interest, as well as sensitive indicator strains (bacteria: Bacillus subtilis, Staphylococcus aureus, Micrococcus luteus, Chromobacterium violaceum, Escherichia coli and Pseudomonas aeruginosa; mycobacteria: Mycolicibacterium smegmatis and fungi: Candida albicans, Schizosaccharomyces pombe, Mucor hiemalis, Pichia anomala and Rhodotorula glutinis).
(§3) Protocol: Antimicrobial Activi ty Assay
(§4) The assay was conducted as a minimum inhi bitory concentration (MIC) assay in 96-well ro und-bottom mi crotiter pl ate s usi ng the p ar ameter s su mm ari zed i n T a bl e S 1 and as already described i n [S1].
(§5) Stocks of the test organi sms were generated by growing the organisms o ver ni ght i n 50 mL shaki ng fl asks fi ll ed wi th 25 mL of the growth medi um at 140 rpm (for media and temperatures see Table S1). If the organisms were well grown the ne xt day, which was checked by occurrence of an optical density (OD)>30 of the suspension (OD600 nm for bacteria, OD548 nm for fungi and M. smegma tis) , aliquots of these were stored i n 1.5 mL reaction tube s in a freezer at −80 °C for up to 12 mo nths . Upon use, aliquots were unth awed and the OD of the suspension measured and adjusted by diluting with the respective growth medi um. OD600 nm w as adj usted to 0.01 and OD548 nm to 0.1.
(§6) Subse que ntly, 150 µL o f the adjusted suspensions were added to all wells of a 96-wel l microtiter pl ate (one test organi sm per plate). In row A, additional 130 µL of suspensions plus 20 µL of the test compounds (1 mg/mL) and the controls (one compound/column) were added. MeOH as well as MeOH:DMSO 9+1 were used as negative controls, while different positive controls (refer ences) were used for the test organisms (see Tabl e S1). Then, starti ng from row A, 150 µ L of the suspension were transferred to the next row, the contents thoroughly mixed, and 150 µ L transferred to the following row.
(§7) The remaining 150 µ L after row H were discarded. […]
(§8) compounds, ranging from 66.7 µg/mL i n row A to 0.52 µg/mL i n row H.
(§9) The microtiter plates were then incubated overnight o n a microplate shaker at 800 rpm at 30 or 37 °C (see Table S1) and were visually evaluated the next day. The MIC is defined as the lowest concentration were no growth of the test organism was o bserved. A lower MIC thus corresponds to a higher antimicrobial activity of the test compound.
(§10) Table S1: MIC assay ex per i men t parameters test organism strain No. growth incubation positive control (reference) […]
Bacillus subtilis DSM10 MHB 1 30 oxytetr acyclin 1.0 mg/mL […]
(§11) Rhodotorula glutinis DSM10134 MYC 3 30 nyst ati n 1.0 mg/mL
(§12) 1 MHB: Müller-Hinton Broth (SN X927.1, Ca r l Roth GmbH, Karlsruhe, Germany) 2 7H9+ADC: Middlebrook 7H9 Broth Base + Middlebrook ADC Growth Supplement (SN M0678+M0553, Merck, Darmstadt, Germany)
(§13) 3 MYC: 1 % w/v, bacto peptone, 1% w/v yeast extract, 2 % w /v glycerol, pH 6.3 [S1] Helaly, S.E.; Ashrafi, S.; Teponno, R.B.; Bernecker, S.; Dababat, A.A.; Maier, W.; Stadler, M.
(§14) Nematicidal Cyclic Lipodepsipeptides and a Xanthocillin Derivative from a Phaeosphariaceous […]

Assay [2] relates to Staphylococcus aureus. The conditions noted are these: Staphylococcus aureus DSM346; overnight, 30 °C; reference oxytetracycline 0.1 mg/mL; read-out: Minimum Inhibitory Concentration (MIC). As for the experimental part: as §1, §2, §3, §4, §5, §6, §7, §8, §9, §10
Staphylococcus aureus DSM346 MHB 1 30 oxytetr acyclin 0.1 mg/mL […]
as §11, §12, §13, §14

Assay [3] deals with Chromobacterium violaceum. The note with it: Chromobacterium violaceum DSM30191; overnight, 30 °C; reference oxytetracycline 0.1 mg/mL; read-out: Minimum Inhibitory Concentration (MIC). On the procedure: as §1, §2, §3, §4, §5, §6, §7, §8, §9, §10
Chromobacterium DSM30191 MHB 1 30 oxytetr acyclin 0.1 mg/mL […]
as §11, §12, §13, §14

For `Oc1cccc2c3c(ccc12)-c1ccc(O)c2c(O)ccc-3c12` [Compound 1, viridistratin A], the values for the MIC in assay [1], in assay [2] and in assay [3] were 33.3 µg/mL (≈ 111 µM), 66.7 µg/mL (≈ 222 µM) and 66.7 µg/mL (≈ 222 µM), respectively.

Take `COc1cccc2c3c(ccc12)-c1ccc(O)c2c(O)ccc-3c12` [Compound 2, viridistratin B]: the figures for the MIC in assay [1], in assay [2] and in assay [3] were 16.7 µg/mL (≈ 53.1 µM), 16.7 µg/mL (≈ 53.1 µM) and 66.7 µg/mL (≈ 212 µM), respectively.

Consider `COc1cccc2c3c(ccc12)-c1ccc(O)c2c(OC)ccc-3c12` [Compound 3, viridistratin C], for which the MIC in assay [1], in assay [2] and in assay [3] was more than 66.7 µg/mL each time.

In the case of `O=C1C[C@H]2C(=C3CCC(=O)c4c(O)ccc2c43)c2cccc(O)c21` [Compound 4, truncatone A], the MIC in assay [1], in assay [2] and in assay [3] was more than 66.7 µg/mL each time.

On to `O=C1CCC(=O)c2c1c(O)cc1c2-c2ccc(O)c3c(O)ccc-1c23` [Compound 5, truncatone C], for which the MIC was 66.7 µg/mL (≈ 201 µM) in assay [1], more than 66.7 µg/mL in assay [2] and more than 66.7 µg/mL in assay [3].
